The text below walks through data of patent US5721338A, “Inhibitors of oligosaccharyl transferase” (California Institute of Technology, priority 1995, dated 1998).

Starred links: 1 amine or outer side, 2 acyl side, 3 side chain; linkers in the order of their positions; H or OH if unused. Positions of bridges follow the written chain, without caps; N, C: chain ends. Non-standard residues stand in square brackets, D forms with d. Residues, ends and D or L forms follow the SMILES beside them. Phe(4-NO2) = N[C@@H](Cc1ccc([N+](=O)[O-])cc1)C(=O)O; X1 = O=C(CCCCC[*:2])[*:1]; Dab = NCC[C@H](N)C(=O)O

The target in data set [1] is T1, S. Cerevisiae Oligosaccharyl Transferase (Saccharomyces cerevisiae, UniProt P39007).
T1 construct: a solubilized preparation of the yeast enzyme oligosaccharyl transferase; endogenous in cells; host or cells: Saccharomyces cerevisiae (crude, Triton-solubilized enzyme preparation)
Kind of data set: Inhibition kinetics (competitive inhibition) with solubilized yeast oligosaccharyl transferase; glycopeptide production from Dol-P-P-GlcNAc-[3H]-GlcNAc and Bz-Asn-Leu-Thr-NHMe. In kind it is biochemical. As to conditions: 37.5 μM Bz-Asn-Leu-Thr-NHMe, control rate 701 dpm min^-1.

Substrate in data set [2]: CNC(=O)[C@@H](NC(=O)[C@H](CC(C)C)NC(=O)[C@H](CC(N)=O)NC(=O)c1ccccc1)[C@@H](C)O
The description is as above. The format is biochemical, S. Cerevisiae. Conditions: other: competing substrate of OT, used in the Ki equation; pH 7.5.

Turning to `CC(C)[C@H](NC(=O)[C@@H](NC(=O)[C@@H]1CSCCCCCC(=O)N[C@@H](CCN)C(=O)N1)[C@@H](C)O)C(=O)N[C@H](C(=O)N[C@@H](Cc1ccc([N+](=O)[O-])cc1)C(N)=O)[C@@H](C)O` [Compound 2, Cyclo(Amb-Cys)-Thr-Val-Thr-Nph] ([Dab]CTVT[Phe(4-NO2)]-NH2; linker N-2 via X1), the “rate of glycopeptide production” value in data set [1] (10 nM solution of 2) was determined as 572 dpm min^-1; in data set [1] (100 nM solution of 2), 296 dpm min^-1.

B1: S. Cerevisiae Oligosaccharyl Transferase (Saccharomyces cerevisiae S288C) (protein)
chain: MGSDRSCVLSVFQTILKLVIFVAIFGAAISSRLFAVIKFESIIHEFDPWFNYRATKYLVNNSFYKFLNWFDDRTWYPLGRVTGGTLYPGLMTTSAFIWHALRNWLGLPIDIRNVCVLFAPLFSGVTAWATYEFTKEIKDASAGLLAAGFIAIVPGYISRSVAGSYDNEAIAITLLMVTFMFWIKAQKTGSIMHATCAALFYFYMVSAWGGYVFITNLIPLHVFLLILMGRYSSKLYSAYTTWYAIGTVASMQIPFVGFLPIRSNDHMAALGVFGLIQIVAFGDFVKGQISTAKFKVIMMVSLFLILVLGVVGLSALTYMGLIAPWTGRFYSLWDTNYAKIHIPIIASVSEHQPVSWPAFFFDTHFLIWLFPAGVFLLFLDLKDEHVFVIAYSVLCSYFAGVMVRLMLTLTPVICVSAAVALSKIFDIYLDFKTSDRKYAIKPAALLAKLIVSGSFIFYLYLFVFHSTWVTRTAYSSPSVVLPSQTPDGKLALIDDFREAYYWLRMNSDEDSKVAAWWDYGYQIGGMADRTTLVDNNTWNNTHIAIVGKAMASPEEKSYEILKEHDVDYVLVIFGGLIGFGGDDINKFLWMIRISEGIWPEEIKERDFYTAEGEYRVDARASETMRNSLLYKMSYKDFPQLFNGGQATDRVRQQMITPLDVPPLDYFDEVFTSENWMVRIYQLKKDDAQGRTLRDVGELTRSSTKTRRSIKRPELGLRV
notes: a solubilized preparation of the yeast enzyme oligosaccharyl transferase; endogenous in cells; host or cells: Saccharomyces cerevisiae (crude, Triton-solubilized enzyme preparation)
Take B1: the Km in data set [2] worked out at 25 µM.
